Laboratory results taken from patent US20260256793A1, “ALTERATION OF F-BOX AND WD REPEAT DOMAIN CONTAINING 7 (FBXW7) GENE AS A PREDICTIVE BIOMARKER FOR TREATING CANCER WITH WEE1 INHIBITORS” (Zeno Management, Inc., priority 2023, published 2026).

Legend:
[1] = test system: Parental DLD-1 colorectal cancer cells; assay: Western blot (Jess) of WEE1, pCDK1, replication stress, DNA damage and apoptosis markers after Azenosertib treatment, parental cells; format: cell-based
Description: (§1) FIG. 8 is a Western Blot image showing levels of FBXW7, WEE1 kinase, Cyclin E1, and other replication stress, DNA damage, apoptosis markers in DLD-1 parental and DLD-1 FBXW7-knockout colorectal cancer cells treated with DMSO (negative control) and 250 nM, 1 μM, and 10 µM of Azenosertib for 8 hours, 24 hours, or 48 hours.
(§2) Parental DLD-1 colorectal cancer cells or FBXW7 knockout (FBXW7-KO) DLD-1 cells (Creative Biogene, Cat No. CSC-RT0018, Lot No. 081723ZYX) were cultured in RPMI 1640 medium (ATCC modification) (Giboco) supplemented with 10% FBS (Gibco) and 1% penicillin-streptomycin (Gibco). Cells were maintained at 37° C. in an atmosphere containing 5% CO2.
(§3) The cultured cells were seeded at optimal density in 6-well plates, allowed to adhere overnight, and then treated with Azenosertib (250 nM, 1 μM, or 10 μM), with DMSO treatment as a negative control. After 8, 24, and 48 hours of drug exposure, cells were harvested, rinsed with PBS, lysed with cold RIPA buffer (Sigma) containing protease and phosphatase inhibitors for 15 minutes, and centrifuged at 4° C., 15,000 rpm for 15 minutes. Protein concentrations were measured using the Pierce BCA Protein Assay kit (Thermo Fisher). Jess™ plates were loaded and run according to the manufacturer's instructions (Bio-Techne). Primary antibodies anti-FBXW7 and anti-Cyclin E1 were purchased from Abcam, anti-phospho-H3, anti-Vinculin, anti-γH2AX, anti-phospho-CDK1, anti-phsopho-Chk1, anti-cleaved caspase 3, anti-Wee1, and anti-CDK1 were purchased from Cell Signaling Technology.

[2] = test system: solid tumor patients (HGSOC, USC, endometrial, colorectal, peritoneum cancer), FBXW7-mutated or wild-type; assay: Clinical outcome of Azenosertib monotherapy by FBXW7 mutational status (composite cohort of 356 patients); format: in vivo, human; details: daily dose at least 300 mg; for Objective Response Rate (ORR): continuous or intermittent schedule, p<0.02, FIG. 9A; for target lesion size reduction (median): p<0.05, FIG. 9B
Description: FIG. 9B is a waterfall plot of the tumor size change in FBXW7-mutated or wild-type human subjects.
The predictive value of FBXW7 was investigated in a composite cohort of 356 patients treated with a daily dose of at least 300 mg of Azenosertib monotherapy on a continuous dosing schedule or an intermittent dosing schedule (e.g., 5 days on/2 days off, 4 days on/3 days off) and profiled with high-throughput DNA sequencing. Specifically, this composite cohort of patients was treated with a daily dose of 300 mg, or 350 mg, or 400 mg, or 450 mg of Azenosertib monotherapy on a continuous dosing schedule (i.e., QD, 7 days a week without any intermission), a daily dose of 300 mg, or 350 mg, or 400 mg, or 450 mg, or of 500 mg of Azenosertib monotherapy on an intermittent 5 days on/2 days off or 4 days on/3 days off schedule). The source of mutational status was a combination of local (reports from clinical sites) or central testing from either tumor or cell-free DNA. The mutational status was determined as mutated when at least one of the reports reported a pathogenic mutation and unmutated (wild-type) when all reports covering the FBXW7 gene were negative. The cohort investigated consists of patients diagnosed with high-grade serous ovarian carcinoma or HGSOC (N=211), uterine serous carcinoma or USC (N=57) or other solid tumor cancers including endometrial cancer, colorectal cancer, and peritoneum cancer […]. The patients mutated for FBXW7 (N=17-including […], 7 USC, 2 endometrial and 3 colorectal), were more likely to respond to Azenosertib monotherapy (Objective Response Rate or ORR=41% (7/17) for FBXW7-mutated patients vs. 16% (53/339) for FBXW7-wild-type patients; p<0.02—FIG. 9A [BOR=Best Overall Response; CR=Complete Response; PR—Partial Response; uPR=Unconfirmed Partial Response; SD=Stable Disease; PD=Progressive Disease).

[3] = test system: FBXW7 knockout (FBXW7-KO) DLD-1 cells; assay: Western blot (Jess) of WEE1, pCDK1, replication stress, DNA damage and apoptosis markers after Azenosertib treatment, FBXW7 knockout cells; format: cell-based
Description: as §1, §2, §3

[4] = 250 nM, 1 μM, 10 μM, 8, 24, 48 hours, vs DMSO, FIG. 8
[5] = FBXW7-KO DLD-1, 250 nM, 1 μM, 10 μM, 8, 24, 48 hours, vs DMSO, FIG. 8
[6] = FBXW7-KO DLD-1, 10 μM, more significant DNA damage compared to parental cell line

With `C=CCn1c(=O)c2cnc(Nc3ccc(N4CCN(C)CC4)cc3)nc2n1-c1ccc2c(n1)[C@@](O)(CC)CC2` [Azenosertib] the WEE1 levels [1, 4] was “dose-dependent decrease”, the “phospho-CDK1 (pCDK1) levels” value [1, 4] was “dose-dependent decrease” and the pCDK1 level ([1]; 10 μM, 48 hours) was “decreasing significantly”. The “Objective Response Rate (ORR)” value ([2]; FBXW7-mutated patients (7/17)) was 41%, the “target lesion size reduction (median)” value ([2]; FBXW7-mutated patients) was −41% and the “Objective Response Rate (ORR)” value ([2]; FBXW7-wild-type patients (53/339)) was 16%. For the same compound, the “target lesion size reduction (median)” value ([2]; second-named group, FBXW7-wild-type patients) was −8%, the WEE1 levels [3, 5] was “dose-dependent decrease” and the “phospho-CDK1 (pCDK1) levels” value [3, 5] was “dose-dependent decrease”. For the same compound, the pCDK1 level ([3]; FBXW7-KO DLD-1, 10 μM, 48 hours) was “decreasing significantly”, the “gamma-H2AX (γH2AX) levels (DNA damage)” value [3, 6] was “increase” and the “phospho-Chk1 (pChk1) levels (DNA damage)” value [3, 6] was “increase”. The “cleaved caspase 3 levels (apoptosis)” value ([3]; FBXW7-KO DLD-1, e.g. 10 µM at 24 hours and 48 hours, compared to parental cell line) was “increase” and the “sensitivity to treatment with Azenosertib” value ([3]; FBXW7-KO cells compared to the parental cell line) was “more sensitive”.
